One experiment has as its target MMP-9 (Homo sapiens, UniProt P14780). Nature of the experiment: Fluorometric substrate assay (MMP inhibitor profiling kit). The class given is biochemical. Also on record: purchased Enzo life sciences BML-AK308. How it is done: (§1) Kit contained a panel of ten MMPs and a quenched fluorogenic substrate OMNIMMP® RED. Composition of a quenched fluorogenic substrate was TQ3-GABA-Pro-Cha-Abu-Smc-His-Ala-Dab(6’-TAMRA)-Ala-Lys-NH2 [TQ3 = quencher; GABA = 4-aminobutyric acid; Cha = L-cyclohexylalanine; Abu = 2-aminobutyric acid; Smc = S-methyl-L-cysteine; Dab = 2,4-diaminobutyric acid; 6’-TAMRA = 6’-tetramethylrhodamine]. Experiment was performed as per instructions provided in the manufacturer’s manual. The assays were performed in a 96-well, black, flat, microplate format. The compound NNGH was provided as a prototypic control inhibitor. […] Untreated MMPs were used as control. The experiment was performed in biological triplicates. After 60-min incubation, fluorogenic substrate OMNIMMP® RED was added to each reaction/well to start the reaction. The plate was continuously read at Ex/Em = 545/576 nm (cutoff at 570 nm) for 30 min with 1-min time intervals at constant temperature, 37 °C, using Molecular Devices SpectraMax M3 plate reader with SoftMax Pro 6.2 software.

In experiment [1] the target is T1, MMP-2 (Homo sapiens, UniProt P08253).
T1 sequence (P08253 110-660): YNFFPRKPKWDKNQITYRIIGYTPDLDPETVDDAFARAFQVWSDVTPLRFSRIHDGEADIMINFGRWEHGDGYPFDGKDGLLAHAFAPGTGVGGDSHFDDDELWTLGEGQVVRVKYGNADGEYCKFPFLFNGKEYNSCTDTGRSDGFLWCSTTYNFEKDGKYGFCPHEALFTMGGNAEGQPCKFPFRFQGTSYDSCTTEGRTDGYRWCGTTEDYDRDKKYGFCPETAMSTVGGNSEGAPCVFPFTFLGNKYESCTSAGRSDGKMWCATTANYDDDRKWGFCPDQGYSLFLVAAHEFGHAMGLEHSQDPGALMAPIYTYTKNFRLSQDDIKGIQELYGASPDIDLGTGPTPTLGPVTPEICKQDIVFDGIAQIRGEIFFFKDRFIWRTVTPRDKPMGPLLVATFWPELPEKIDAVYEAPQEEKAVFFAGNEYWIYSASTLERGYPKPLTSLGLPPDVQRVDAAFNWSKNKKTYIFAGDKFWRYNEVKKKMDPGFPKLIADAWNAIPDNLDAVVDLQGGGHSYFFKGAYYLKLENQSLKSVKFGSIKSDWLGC
The experiment is described as above. Also on record: purchased Enzo life sciences BML-AK308. The class given is biochemical. How it is done:
as §1

Experiment [2] has as its target T1, MMP-2. Nature of the experiment: Gelatin zymography of medium of PMA-stimulated THP-1 cells. The experiment is classed as cell-based. Particulars: 100 µM, 18 h, compared to controls. How it is done:
THP-1 cells were plated in 12-well plates at a density of 1 × 10^6 cells per well. First, THP-1 were treated with phorbol-12-myristate-13-acetate (PMA) for 24 h to promote the differentiation of cells into macrophages and stimulate MMP secretion. […] For each treatment, biological triplicate samples were utilized. Following treatment, cell medium was collected from each well and centrifuged at 800 × g for 10 min at 4 °C to remove any cell debris. Collected samples were stored at − 80 °C for further analysis. A 10% SDS–polyacrylamide gel containing 0.1% gelatin was loaded with 3 µg of protein from cell medium for gelatin zymography. In parallel, second 10% SDS–polyacrylamide gel was used to assess equal protein loading. In addition, recombinant human MMP-2 and MMP-9 (10 ng each) were loaded as standards (EMD Millipore, Burlington, MA). Gel ran at 60 V until the loading dye reached the bottom of the gel. After the run, the gelatin gel was washed with water for 15 min and incubated in renaturation buffer [2.5% (v/v) Triton X-100 in Milli-Q water] for 60 min at room temperature. The renaturation buffer was replaced with a fresh renaturation buffer at the interval of 30 min. […] Relative activity of MMPs was measured by quantitating band density by ImageJ software and normalized with respective standard.

Data on one compound can be found in PMC8599359 (Molecular Neurobiology, 2021).

Sequence of MMP-9 (P14780 94-707): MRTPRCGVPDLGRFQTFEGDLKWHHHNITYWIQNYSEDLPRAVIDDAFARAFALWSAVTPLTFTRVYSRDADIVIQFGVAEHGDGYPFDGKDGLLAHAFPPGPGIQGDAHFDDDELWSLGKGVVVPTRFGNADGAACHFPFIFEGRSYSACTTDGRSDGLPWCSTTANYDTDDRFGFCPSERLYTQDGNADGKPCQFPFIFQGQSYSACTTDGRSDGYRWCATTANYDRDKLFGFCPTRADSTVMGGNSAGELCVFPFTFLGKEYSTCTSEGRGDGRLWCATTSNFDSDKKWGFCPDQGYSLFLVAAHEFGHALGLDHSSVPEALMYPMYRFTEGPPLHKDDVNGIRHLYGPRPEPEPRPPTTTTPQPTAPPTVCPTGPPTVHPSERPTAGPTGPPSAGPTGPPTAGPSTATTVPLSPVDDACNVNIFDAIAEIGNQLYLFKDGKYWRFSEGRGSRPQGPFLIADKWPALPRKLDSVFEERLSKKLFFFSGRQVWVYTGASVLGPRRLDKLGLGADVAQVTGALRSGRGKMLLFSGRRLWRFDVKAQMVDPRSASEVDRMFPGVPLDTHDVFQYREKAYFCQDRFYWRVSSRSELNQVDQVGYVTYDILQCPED

For `C[C@@H]1CCO[C@H]2Cn3cc(C(=O)NCc4ccc(F)cc4F)c(=O)c(O)c3C(=O)N12` [DTG, Dolutegravir], the “inhibitory effect compared to doxycycline” value is reported as “higher inhibitory effect” against MMP-9 (MMP-9, 20 µM) and “higher inhibitory effect” against MMP-2 [1] (MMP-2, 20 µM). In addition, the IC50 came out at 11.1 µM at MMP-9 (human recombinant MMP-9, 60 min preincubation, four-parameter fit) and 16.9 µM at MMP-2 [1] (human recombinant MMP-2, 60 min preincubation, four-parameter fit). In addition, at MMP-2 [2], the “Relative activity of pro and active forms of MMP-2” value is “significantly decreased”.
